Melting point data for 89 compounds are collected here from a melting point compilation (Tetko et al.; mined from patent text by program, amines drawn as free bases though some values may be those of a salt).

Regarding `CC(=O)ON(C)C(=O)CCc1cc(-c2ccc(Cl)cc2)n(-c2nc3c(Cl)cccc3s2)n1`, the melting point lay within 159 to 160 °C.
For the compound `COc1cccc2cc(C(=O)Nc3ccc(-n4nc(C(F)(F)F)cc4C(F)(F)F)cc3)oc12`, the melting point lay within 109 to 110 °C.
For `CNC(=O)n1nc(Oc2ccc([N+](=O)[O-])cc2C(F)(F)F)c(Cl)c1C` the value was 157 to 158 °C; for `CC(C)Nc1nc(-c2ccccc2)c(-c2ccc(=O)n(C(C)C)n2)s1`, 138 to 139 °C.
With `CC1(C)OC(=S)Nc2ccc(-c3cc(Cl)cc(C#N)c3)cc21`, the melting point was 249 to 251 °C.
For `COc1ccc(-c2cc3cc(F)c(F)cc3[nH]2)cc1NS(=O)(=O)c1cccc(N)c1` the value was 235 to 238 °C.
`Cc1cc(F)ccc1NC(=O)OC(C)(C)C`: the melting point was in the range of 93 to 95 °C.
For `Cc1cc(F)c2ncc(C(=O)NNc3ccc(Cl)cc3)c(O)c2c1` the value was 256 to 258 °C.
In turn, `CC1COc2ccccc2O1` (centres undefined) had a melting point of 86 to 87 °C.
`CCOC(=O)Cc1c(C)nc2c3cccc(Cl)c3ccn12` had a melting point of 137 to 138 °C.
In turn, `COC1=C(OCCCc2ccccc2)c2c(C)ccnc2C(N)([N+](=O)[O-])C1` (centres undefined) registered a melting point of 91 to 91.5 °C.
Compound `CC1(COC(=O)N2CC=C(c3ccc(C(F)(F)F)cc3)CC2)Cn2cc([N+](=O)[O-])nc2O1` (centres undefined) returned a melting point of 113 to 115 °C.
In turn, `CC1=CC2CC(O)CCC2(C)C2=C1C1CCC(C(C)CCCC(C)C)C1(C)CC2` (centres undefined) gave a melting point of 112 to 113 °C.
In the case of `COc1cc(COc2ccc3nc(NC(=O)OCC(O)CO)cn3n2)cc(OC)c1OC` (centres undefined), the melting point fell in the range of 175 to 176 °C.
`CC(C)(C)OC(=O)CCOCCCc1ccnc(-c2nc(=O)c3ccccc3s2)c1` came in with a melting point of 81.1 to 82.2 °C.
For `CC1CC(=O)C=C2C=CC3C4CCC(=O)C4(C)CCC3C21C` (centres undefined) the value was 171 °C; for `C[Si](C)(C)OCc1cccc2c1c1c(c3ccccc32)-c2c(c3ccccc3c3ccccc23)C1`, 130 to 131 °C.
To `Cc1oc2cc(O)cc(O)c2c(=O)c1-c1ccc(F)cc1` belongs 222 to 223 °C; to `CC(=NO)C(C)(C)NN(C)CCNC(C)(C)C(Cn1ccnc1[N+](=O)[O-])=NO`, 132 to 134 °C.
Turning to `O=C(CN1CCC(Cc2ccccc2)CC1)Nc1ccc2[nH]c(=O)oc2c1`, the melting point was 210 to 212 °C.
`Oc1cccc2c1CC1C(C2)C1(Cl)Cl` (centres undefined) had a melting point of 89 to 93 °C.
The compound `Cc1c(C(=O)c2ccccc2)c(NC(=O)CI)cn1C` displayed a melting point of 135 to 137 °C.
For `CC(C)(C)[C@@H](NS(=O)(=O)c1ccc(Oc2ccc(Cl)cc2)cc1)C(=O)O` the value was 138 to 140 °C; for `O=C(Cl)N1CCOCC1`, 138 to 139 °C; for `O=C(O)CCc1oc(-c2ccc3c(c2)OCO3)nc1-c1ccc(Cl)cc1`, 199 to 200 °C.
For `Clc1ccc(-c2n[nH]c(-c3ccncc3)n2)cc1` the value was 264 to 266 °C; for `COc1cccc2c1nc(C(F)F)n2-c1nc(Nc2cccnc2)nc(N2CCOCC2)n1`, 221 to 223 °C.
As to `CCOC(=O)c1cc(SC#N)c(Br)cc1N`, the melting point was 149 to 150 °C.
The compound `CC(C)N(CCC1(c2ccccc2Cl)CC(=O)NC1=O)C(C)C` (centres undefined) gave a melting point of 116 to 119 °C.
The compound `N#CC1C=Cc2ccccc2N1C(=O)c1ccccc1` (centres undefined) had a melting point of 153 to 154 °C.
On to `Cc1cc(C)c(O)c(C(CCCC(c2cc(C)cc(C)c2O)c2cc(C)cc(C)c2O)c2cc(C)cc(C)c2O)c1`, for which the melting point lay in the range of 236 to 242 °C.
To `CCN1C=C(N)N=C(C2CC2)c2ccccc21` belongs 93 to 95 °C; to `CCCc1c(OCc2ccc(C(=O)O)cc2[N+](=O)[O-])ccc(C(C)=O)c1O`, 226 to 228 °C; to `COC(=O)C[C@@H]1C[C@@H](COc2ccc(-c3ccc(C(=N)NC(=O)OCc4ccccc4)cc3)cc2)N(c2ccccc2)C1=O`, 157 to 159 °C.
The compound `COC(=O)ON(C)C(=O)C(C)Nc1c([N+](=O)[O-])cc(C)cc1[N+](=O)[O-]` (centres undefined) came in with a melting point of 112 to 113 °C.
Turning to `CCCCC(=N)NC(=O)Nc1cccc([N+](=O)[O-])c1`, the melting point was 161 to 163 °C.
Take `COc1ccc(Nc2nc(NC3CCCCCC3)nc(Oc3ccc(I)cc3)n2)cc1Cl`: the melting point fell in the range of 80 to 82 °C.
In turn, `Nc1c(-c2nc(-c3ccco3)n[nH]2)nnn1Cc1ccc(F)cc1` yielded a melting point of 200 to 202 °C.
Compound `O=C(c1ccc(Br)cc1Cl)c1cccc2c1Nc1ncccc1CN2` registered a melting point of 165 to 168 °C.
`COc1cccc(C2(COc3cccc4cc(NS(=O)(=O)C(F)(F)F)ccc34)N=CNO2)c1` (centres undefined) returned a melting point of 138 to 140 °C.
For the compound `CC(=O)c1ccc(OCCCCCCOc2ccccc2)o1`, the melting point is 80 °C.
To `CCCCCCCCC(=S)n1c(-c2cscn2)nc2ccccc21` belongs 58 to 59 °C.
`CCC1(CCCCCl)C(=O)Nc2c(C)cccc21` (centres undefined) displayed a melting point of 112 to 113 °C.
For `CC(C)CCNC(=O)c1ccccc1-c1ccccc1CNS(=O)(=O)c1ccc(F)cc1`, the melting point worked out at 149 °C.
In turn, `Nc1ccc(Cl)cc1C(=O)c1ccccc1O` showed a melting point of 51 to 52 °C.
On to `Cc1nn(C)cc1C(=O)NC1=C(c2ccc(Cl)cc2)CCC1`, for which the melting point was 103 to 105 °C.
For `O=c1[nH]c2cc(Cl)ccc2c(O)c1-c1cccc(I)c1`, the melting point is above 350 °C.
Regarding `CCOc1nn(-c2ccc(C(F)(F)F)cc2)cc1CCCOc1ccccc1CC(=O)O`, the melting point fell in the range of 114 to 115 °C.
Turning to `CCN(CC)C(=O)C(C)(C)Oc1ccc(-c2ccc(N3CCCCC3)cc2)cc1`, the melting point is 100 to 102 °C.
In the case of `CCOc1ncc(S(C)(=O)=O)cc1C(=O)O`, the melting point lay within 175 to 176 °C.
For `COC(=O)C1(C)Cc2c([nH]c3ccc(OC)cc23)C(c2ccccc2)N1` (centres undefined) the value was 172 to 175 °C.
To `COc1cc(C(=O)Cl)ccc1OCCCCl` belongs 60 to 63 °C; to `Cc1cc2c(cc1N(C)CC(C)C)N=C(c1cccc(-n3ncnc3CO)c1)CC(=O)N2`, 191 °C; to `Cn1c(-c2c(Cl)cccc2Cl)nc2cc(C(=O)O)ccc21`, above 250 °C.
To `CC(=O)N1CC(=O)N(C)C(=O)N1c1cc(Cl)c(C(C#N)c2ccc(Cl)cc2)c(Cl)c1` (centres undefined) belongs 178 °C; to `O=C(N[C@H](Cc1ccc(C(F)(F)F)cc1)[C@@H](O)c1ccc(F)cc1)c1cccc(Oc2ccccc2)c1` (racemic), 144 to 145 °C.
For `C=C(C)Cn1c(S)nc2c(cnn2C)c1=O`, the melting point was 158 to 160 °C.
Turning to `CC(C)CNc1nc(-c2ccccc2)c(Br)n2ccnc12`, the melting point came to 138 °C.
To `CCOC(=O)CC(O)(CC)c1cc2n(c(=O)c1CO)Cc1cc3ccccc3nc1-2` (centres undefined) belongs 157 to 161 °C; to `COC(=O)CCC#Cc1cc(Cl)ccc1NS(=O)(=O)c1ccc(C(C)=O)cc1`, 88 °C.
As for `CCOC(=O)c1ccc2c(c1)CCC(COS(=O)(=O)c1ccc(C)cc1)C2` (centres undefined), the melting point lay within 76 to 78 °C.
Compound `Cc1nc(-c2ccc(N3CCN(C)CC3)c([N+](=O)[O-])c2)sc1C(=O)O` came in with a melting point of 218 to 220 °C.
To `CN1CCCC(O)(c2nccnc2Cl)C1` (centres undefined) belongs 111 to 112 °C; to `CCOc1cc2c(Nc3ccc(OC)cc3)c(C#N)cnc2nc1C`, 190 to 192 °C; to `CCOC(=O)C(O)=CC=C(SC)C(=O)c1ccc(N2CCCCC2)cc1`, 65 °C.
For `C#CCOc1cccc(C)c1S(N)(=O)=O` the value was 129 °C.
`Cc1ccc(CNC(=O)c2sc(N3CCN(Cc4ccccc4)C3=O)nc2C)o1` yielded a melting point of 138 to 139 °C.
To `Cc1cccc(N2C(=S)SCC2(O)CC(C)C)n1` (centres undefined) belongs 95 °C.
To `OC(Cn1cncn1)(c1ccc(Oc2ccc(Cl)cc2)cc1Cl)C1CC1` (centres undefined) belongs 170 °C; to `Cc1cc(/C=[N+](\[O-])C(C)C)cc(C)c1O`, 201 to 203 °C; to `CC(C)(C)N[C@@H]1CCc2c(ccc(OCc3ccccc3)c2C#N)[C@H]1O` (relative stereo), 120 to 122 °C.
For `Cc1cc(Cc2ccccc2)c(NC(=O)OCc2ccccc2)c(=O)n1CC(=O)O`, the melting point lay in the range of 158 to 160 °C.
In the case of `O=C1CC(c2ccc(F)cc2)c2ccccc21` (centres undefined), the melting point fell in the range of 120 to 121 °C.
`CC1CC(=O)c2cc([N+](=O)[O-])c(F)cc2O1` (centres undefined) showed a melting point of 139 to 141 °C.
In turn, `COc1ccc(C(=O)CC(c2cccs2)C(C)(C)[N+](=O)[O-])cc1` (centres undefined) gave a melting point of 90 °C.
In turn, `O=c1cc(CO)oc(CO)c1O` had a melting point of 160 to 161 °C.
For `CCOC(=O)CC(=O)NC(Cc1ccccc1)C(C)=O` (centres undefined) the value was 68 to 69 °C; for `COc1cc(N)c(S(C)(=O)=O)cc1C(=O)NCC1CCCN1C` (centres undefined), 190 to 191 °C.
`CC(C)C[C@H](NC(=O)OCc1ccccc1)C(=O)N[C@@H](Cc1ccccc1)C(=O)CSCCCl` came in with a melting point of 77 to 80 °C.
Turning to `CC1(C)CC(=O)c2c(-c3cncs3)cn(-c3ccccn3)c2C1`, the melting point fell in the range of 167 to 169 °C.
For the compound `O=C(O)CCCCCCCCN1C(=O)C(c2ccccc2)N(c2ccccc2)C1=O` (centres undefined), the melting point is 112 °C.
`O=S(=O)(O)c1ccc(O)c(O)c1` returned a melting point of 254 to 255 °C.
`CC(C)(C)OC(=O)NCCNC(=O)c1ccc(Cl)cc1` came in with a melting point of 141 to 143 °C.
With `O=C(c1cccs1)c1cnn2c(-c3cccc(NCc4cccc(Cl)c4)c3)ccnc12`, the melting point lay in the range of 133 to 135 °C.
In the case of `Cc1cc(C(=O)O)nn1CC(=O)Nc1ccccc1`, the melting point was 273 to 275 °C.
`C=CCOc1cc(C(=O)OCC)nc2ccccc12` came in with a melting point of 71 to 72 °C.
`COC(=O)CCc1ccccc1Cc1ccccc1C(=O)O` showed a melting point of 123 to 126 °C.
For `CCOc1cccc(CNC(=O)[C@H]2N(C(=O)[C@@H](O)[C@H](Cc3ccccc3)NC(=O)c3cccc(O)c3C)CSC2(C)C)c1` the value was 105 to 107 °C; for `O=C(O)/C=C/c1c(C2CC2)nc2ccccc2c1-c1ccc(F)cc1`, 173 to 174 °C.

The term melting point denotes the temperature of the solid-liquid transition.
